Source: the supplement of paper PMC4862054
Values joined by “and” are separate entries in the source; they are usually repeats but may differ in a detail not shown here. Identical values can stand only once.

What was measured:
Conditions in all cases: incubation time: 72 h
HDQ-P1 [1] = test: normalised viability (% of control), CellTiter-Blue; higher = more viable cells (about 100 = DMSO control)
Procedure: (§1)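 DSRT, CellTiter-Blue viability, 72 h incubation. Signal is normalised to DMSO and benzethonium chloride controls. Value is the normalised response at dose 9.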

CAL-148 [2] = test: as above
Procedure: as §1

DU-4475 [3] = test: as above
Procedure: as §1

MDA-MB-453 [4] = test: as above
Procedure: as §1

CAL-85-1 [5] = test: as above
Procedure: as §1

CAL-51 [6] = test: as above
Procedure: as §1

HDQ-P1 [7] = test: as above; remark: listed apart in the source
Procedure: (§2)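 DSRT, CellTiter-Blue viability, 72 h incubation. Signal is normalised to DMSO and benzethonium chloride controls. Value is the normalised response at dose 7.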

CAL-148 [8] = test: as above; remark: listed apart in the source
Procedure: as §2

DU-4475 [9] = test: as above; remark: listed apart in the source
Procedure: as §2

MDA-MB-453 [10] = test: as above; remark: listed apart in the source
Procedure: as §2

CAL-85-1 [11] = test: as above; remark: listed apart in the source
Procedure: as §2

CAL-51 [12] = test: as above; remark: listed apart in the source
Procedure: as §2

MCF-10A = test: drug sensitivity score (DSS), CellTox Green (DSS (AUC-based score)); higher = stronger drug effect (viability inhibition or cytotoxicity); extreme values may be limits of the assay
Summary of the method: (§3)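 Each compound occupied 5 concentrations in 10-fold steps over its own 10,000-fold range in 384-well plates, into which breast cancer cell lines were seeded as 20 µl suspension. Following 72 h of incubation, CellTox Green fluorescence (485/520 nm) was measured, and CellTiter-Glo luminescence was measured after 10 min at room temperature. Plates were individually normalised to 0.1 % DMSO and a positive kill control. From the area under the fitted dose-response curve, a drug sensitivity score was calculated.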

MDA-MB-468 = test: as above
Summary of the method: as §3

MDA-MB-453 [13] = test: as above
Summary of the method: as §3

Compound	normalised viability (HDQ-P1 [1])	normalised viability (CAL-148 [2])	normalised viability (DU-4475 [3])	normalised viability (MDA-MB-453 [4])	normalised viability (CAL-85-1 [5])	normalised viability (CAL-51 [6])	normalised viability (HDQ-P1 [7])	normalised viability (CAL-148 [8])	normalised viability (DU-4475 [9])	normalised viability (MDA-MB-453 [10])	normalised viability (CAL-85-1 [11])	normalised viability (CAL-51 [12])	drug sensitivity score (MCF-10A)	drug sensitivity score (MDA-MB-468)	drug sensitivity score (MDA-MB-453 [13])
CC(C)(C)NC(=O)[C@H]1CC[C@H]2[C@@H]3CC[C@H]4NC(=O)C=C[C@]4(C)[C@H]3CC[C@]12C [Finasteride] (10000 nM)	135%	36.5%	0.15%	23%	51.9%	33.7%	–	–	–	–	–	–	–	–	–
Nc1ccn([C@@H]2O[C@H](CO)[C@@H](O)C2(F)F)c(=O)n1 [Gemcitabine] (100 nM)	–	–	–	–	–	–	92.3%	33.7%	45.1%	48.3%	49.8%	16.3%	–	–	–
Nc1ccn([C@@H]2O[C@H](CO)[C@@H](O)C2(F)F)c(=O)n1 [Gemcitabine] (1000 nM)	100%	0.25%	11.2%	1.2%	5.03%	7.26%	–	–	–	–	–	–	–	–	–
CC(C)C[C@H](NC(=O)[C@@H](COC(C)(C)C)NC(=O)[C@H](Cc1ccc(O)cc1)NC(=O)[C@H](CO)NC(=O)[C@H](Cc1c[nH]c2ccccc12)NC(=O)[C@H](Cc1cnc[nH]1)NC(=O)[C@@H]1CCC(=O)N1)C(=O)N[C@@H](CCCNC(=N)N)C(=O)N1CCC[C@H]1C(=O)NNC(N)=O [Goserelin]	–	–	–	–	–	–	–	–	–	–	–	–	0	0	0
CC(C)C[C@H](NC(=O)[C@@H](COC(C)(C)C)NC(=O)[C@H](Cc1ccc(O)cc1)NC(=O)[C@H](CO)NC(=O)[C@H](Cc1c[nH]c2ccccc12)NC(=O)[C@H](Cc1cnc[nH]1)NC(=O)[C@@H]1CCC(=O)N1)C(=O)N[C@@H](CCCNC(=N)N)C(=O)N1CCC[C@H]1C(=O)NNC(N)=O [Goserelin] (1000 nM)	–	–	–	–	–	–	96.9%	97.1%	102%	96%	93.2%	108%	–	–	–
CC(C)C[C@H](NC(=O)[C@@H](COC(C)(C)C)NC(=O)[C@H](Cc1ccc(O)cc1)NC(=O)[C@H](CO)NC(=O)[C@H](Cc1c[nH]c2ccccc12)NC(=O)[C@H](Cc1cnc[nH]1)NC(=O)[C@@H]1CCC(=O)N1)C(=O)N[C@@H](CCCNC(=N)N)C(=O)N1CCC[C@H]1C(=O)NNC(N)=O [Goserelin] (10000 nM)	140%	102%	104%	89.8%	84.9%	109%	–	–	–	–	–	–	–	–	–
CC(=O)[C@]1(O)Cc2c(O)c3c(c(O)c2[C@@H](O[C@H]2C[C@H](N)[C@H](O)[C@H](C)O2)C1)C(=O)c1ccccc1C3=O [Idarubicin] (100 nM)	–	–	–	–	–	–	78.3%	11.3%	27.7%	79.4%	75.7%	28%	–	–	–
CC(=O)[C@]1(O)Cc2c(O)c3c(c(O)c2[C@@H](O[C@H]2C[C@H](N)[C@H](O)[C@H](C)O2)C1)C(=O)c1ccccc1C3=O [Idarubicin] (1000 nM)	17%	1.34%	0.02%	11.6%	6.92%	1.95%	–	–	–	–	–	–	–	–	–
C/C(=C\c1csc(C)n1)[C@@H]1C[C@@H]2O[C@]2(C)CCC[C@H](C)[C@H](O)[C@@H](C)C(=O)C(C)(C)[C@@H](O)CC(=O)N1 [Ixabepilone] (100 nM)	–	–	–	–	–	–	78.1%	86.5%	93.7%	78.5%	80.5%	108%	–	–	–
C/C(=C\c1csc(C)n1)[C@@H]1C[C@@H]2O[C@]2(C)CCC[C@H](C)[C@H](O)[C@@H](C)C(=O)C(C)(C)[C@@H](O)CC(=O)N1 [Ixabepilone] (1000 nM)	37%	20.9%	21.5%	5.47%	36.9%	57.9%	–	–	–	–	–	–	–	–	–
C=CCn1c(=O)c2cnc(Nc3ccc(N4CCN(C)CC4)cc3)nc2n1-c1cccc(C(C)(C)O)n1 [MK1775] (1000 nM)	–	–	–	–	–	–	47.8%	9.04%	32.2%	23.2%	40.5%	16.6%	–	–	–
CO[C@@H]1[C@H](N(C)C(=O)c2ccccc2)C[C@H]2O[C@]1(C)n1c3ccccc3c3c4c(c5c6ccccc6n2c5c31)C(=O)NC4 [Midostaurin] (1000 nM)	–	–	–	–	–	–	52.8%	82.2%	8.53%	67.9%	81.1%	14.5%	–	–	–
CO[C@@]12[C@H](COC(N)=O)C3=C(C(=O)C(C)=C(N)C3=O)N1C[C@@H]1N[C@@H]12 [Mitomycin C] (1000 nM)	–	–	–	–	–	–	88.9%	96.3%	95.6%	91.4%	77.2%	108%	–	–	–
CCNC(=O)c1noc(-c2cc(C(C)C)c(O)cc2O)c1-c1ccc(CN2CCOCC2)cc1 [NVP-AUY922] (100 nM)	–	–	–	–	–	–	31.8%	15.9%	0.71%	8.47%	28.6%	10.1%	–	–	–
CC1(C)CCC(c2ccc(Cl)cc2)=C(CN2CCN(c3ccc(C(=O)NS(=O)(=O)c4ccc(N[C@H](CCN5CCOCC5)CSc5ccccc5)c(S(=O)(=O)C(F)(F)F)c4)cc3)CC2)C1 [Navitoclax] (1000 nM)	–	–	–	–	–	–	68.2%	80.1%	40.2%	75.5%	81.2%	97.6%	–	–	–
Cc1cn(-c2cc(NC(=O)c3ccc(C)c(Nc4nccc(-c5cccnc5)n4)c3)cc(C(F)(F)F)c2)cn1 [Nilotinib] (1000 nM)	–	–	–	–	–	–	91.7% and 81.1%	93.5% and 93.9%	113% and 98.9%	88.3% and 97.5%	84.7% and 89.2%	107% and 117%	–	–	–
O=C(CCCCCCC(=O)Nc1ccccc1)NO [Vorinostat] (1000 nM)	–	–	–	–	–	–	80.8% and 62.8%	83.7% and 89.3%	103% and 97.4%	51.6% and 54.1%	84% and 86.3%	107% and 99.4%	–	–	–
